Data taken from US9783573B2, “IAP antagonists” (BRISTOL-MYERS SQUIBB COMPANY, priority 2012, dated 2017).

Molecular target: N-His-Tb-BIR3 (241-356, XIAP) (Homo sapiens (Human), UniProt P98170)
Assay: biochemical
Format: binding
Settings: fluoresceinated modified SMAC peptide, fluorescence polarization; read-out: XIAP BIR3 FPA IC50

Question: `CN[C@@H](C)C(=O)N[C@H](C(=O)N1Cc2cc(NC(=O)CCC(=O)N[C@H]3C[C@@H](C(=O)N[C@@H]4CCCc5ccccc54)N(C(=O)[C@@H](NC(=O)[C@H](C)NC)C(C)(C)C)C3)ccc2C[C@H]1C(=O)N[C@@H]1CCCc2ccccc21)C(C)(C)C` [Example 1, N^1—((S)-2-((S)-3,3-Dimethyl-2-((S)-2-(methylamino)propanamido)butanoyl)-3-(((R)-1,2,3,4-tetrahydronaphthalen-1-yl)carbamoyl)-1,2,3,4-tetrahydroisoquinolin-7-yl)-N^4-((3S,5S)-1-((S)-3,3-dimethyl-2-((S)-2-(methylamino)propanamido)butanoyl)-5-(((R)-1,2,3,4-tetrahydronaphthalen-1-yl)carbamoyl)pyrrolidin-3-yl)succinamide] was tested. Which IC50 did it give?
Answer: Its IC50 is 61 nM.

Question: With `CN[C@@H](C)C(=O)N[C@H](C(=O)N1Cc2cc(N(C(=O)C3(C(N)=O)CC3)[C@H]3C[C@@H](C(=O)N[C@@H]4CCCc5ccccc54)N(C(=O)[C@@H](NC(=O)[C@H](C)NC)C(C)(C)C)C3)ccc2C[C@H]1C(=O)N[C@@H]1CCCc2ccccc21)C(C)(C)C` [Example 4, N-((S)-2-((S)-3,3-Dimethyl-2-((S)-2-(methylamino)propanamido)butanoyl)-3-(((R)-1,2,3,4-tetrahydronaphthalen-1-yl)carbamoyl)-1,2,3,4-tetrahydroisoquinolin-7-yl)-N-((3S,5S)-1-((S)-3,3-dimethyl-2-((S)-2-(methylamino)propanamido)butanoyl)-5-(((R)-1,2,3,4-tetrahydronaphthalen-1-yl)carbamoyl)pyrrolidin-3-yl)cyclopropane-1,1-dicarboxamide] as the compound, how does the IC50 read?
Answer: Its IC50 is 53 nM.

Question: How did the IC50 turn out when `CN[C@@H](C)C(=O)N[C@H](C(=O)N1Cc2cc(N(C(=O)C3(C(N)=O)CCC3)[C@H]3C[C@@H](C(=O)N[C@@H]4CCCc5ccccc54)N(C(=O)[C@@H](NC(=O)[C@H](C)NC)C(C)(C)C)C3)ccc2C[C@H]1C(=O)N[C@@H]1CCCc2ccccc21)C(C)(C)C` [Example 5, N-((S)-2-((S)-3,3-Dimethyl-2-((S)-2-(methylamino)propanamido)butanoyl)-3-(((R)-1,2,3,4-tetrahydronaphthalen-1-yl)carbamoyl)-1,2,3,4-tetrahydroisoquinolin-7-yl)-N-((3S,5S)-1-((S)-3,3-dimethyl-2-((S)-2-(methylamino)propanamido)butanoyl)-5-(((R)-1,2,3,4-tetrahydronaphthalen-1-yl)carbamoyl)pyrrolidin-3-yl)cyclobutane-1,1-dicarboxamide] was run?
Answer: Its IC50 is 69 nM.

Question: For `CN[C@@H](C)C(=O)N[C@H](C(=O)N1Cc2cc(NC(=O)C3CC4(C3)CC(C(=O)N[C@H]3C[C@@H](C(=O)N[C@@H]5CCCc6ccccc65)N(C(=O)[C@@H](NC(=O)[C@H](C)NC)C(C)(C)C)C3)C4)ccc2C[C@H]1C(=O)N[C@@H]1CCCc2ccccc21)C(C)(C)C` (stereo partly drawn) [Example 7, N^2-((S)-2-((S)-3,3-Dimethyl-2-((S)-2-(methylamino)propanamido)butanoyl)-3-(((R)-1,2,3,4-tetrahydronaphthalen-1-yl)carbamoyl)-1,2,3,4-tetrahydroisoquinolin-7-yl)-N^6-((3S,5S)-1-((S)-3,3-dimethyl-2-((S)-2-(methylamino)propanamido)butanoyl)-5-(((R)-1,2,3,4-tetrahydronaphthalen-1-yl)carbamoyl)pyrrolidin-3-yl)spiro[3.3]heptane-2,6-dicarboxamide], which IC50 is on record?
Answer: The IC50 was 83 nM.

Question: `CN[C@@H](C)C(=O)N[C@H](C(=O)N1Cc2cc(NC(=O)CCc3ccc(C(=O)N[C@H]4C[C@@H](C(=O)N[C@@H]5CCCc6ccccc65)N(C(=O)[C@@H](NC(=O)[C@H](C)NC)C(C)(C)C)C4)cc3)ccc2C[C@H]1C(=O)N[C@@H]1CCCc2ccccc21)C(C)(C)C` [Example 8, (S)-2-((S)-3,3-Dimethyl-2-((S)-2-(methylamino)propanamido)butanoyl)-7-(3-(4-(((3S,5S)-1-((S)-3,3-dimethyl-2-((S)-2-(methylamino)propanamido)butanoyl)-5-(((R)-1,2,3,4-tetrahydronaphthalen-1-yl)carbamoyl)pyrrolidin-3-yl)carbamoyl)phenyl)propanamido)-N-((R)-1,2,3,4-tetrahydronaphthalen-1-yl)-1,2,3,4-tetrahydroisoquinoline-3-carboxamide] was tested. Which IC50 did it give?
Answer: Its IC50 is 57 nM.

Question: How did the IC50 turn out when `CN[C@@H](C)C(=O)N[C@H](C(=O)N1Cc2cc(NC(=O)c3ccc(CCC(=O)N[C@H]4C[C@@H](C(=O)N[C@@H]5CCCc6ccccc65)N(C(=O)[C@@H](NC(=O)[C@H](C)NC)C(C)(C)C)C4)cc3)ccc2C[C@H]1C(=O)N[C@@H]1CCCc2ccccc21)C(C)(C)C` [Example 9, (S)-2-((S)-3,3-Dimethyl-2-((S)-2-(methylamino)propanamido)butanoyl)-7-(4-(3-(((3S,5S)-1-((S)-3,3-dimethyl-2-((S)-2-(methylamino)propanamido)butanoyl)-5-(((R)-1,2,3,4-tetrahydronaphthalen-1-yl)carbamoyl)pyrrolidin-3-yl)amino)-3-oxopropyl)benzamido)-N-((R)-1,2,3,4-tetrahydronaphthalen-1-yl)-1,2,3,4-tetrahydroisoquinoline-3-carboxamide] was run?
Answer: The IC50 was 65 nM.

Question: With `CN[C@@H](C)C(=O)N[C@H](C(=O)N1Cc2cc(NC(=O)c3ccc(C(=O)Nc4ccc5c(c4)CN(C(=O)[C@@H](NC(=O)[C@H](C)NC)C(C)(C)C)[C@H](C(=O)N[C@H](C)c4ccccc4F)C5)cc3)ccc2C[C@H]1C(=O)N[C@H](C)c1ccccc1F)C(C)(C)C` [Example 12, N^1,N^4-bis((S)-2-((S)-3,3-Dimethyl-2-((S)-2-(methylamino)propanamido)butanoyl)-3-(((R)-1-(2-fluorophenyl)ethyl)carbamoyl)-1,2,3,4-tetrahydroisoquinolin-7-yl)terephthalamide] as the compound, how does the IC50 read?
Answer: The IC50 was 130 nM.

Question: How did the IC50 turn out when `CN[C@@H](C)C(=O)N[C@H](C(=O)N1Cc2cc(NC(=O)c3ccc(C(=O)Nc4ccc5c(c4)CN(C(=O)[C@@H](NC(=O)[C@H](C)NC)C(C)(C)C)[C@H](C(=O)N[C@@H](COC)c4ccccc4)C5)cc3)ccc2C[C@H]1C(=O)N[C@@H](COC)c1ccccc1)C(C)(C)C` [Example 14, N^1,N^4-bis((S)-2-((S)-3,3-Dimethyl-2-((S)-2-(methylamino)propanamido)butanoyl)-3-(((R)-2-methoxy-1-phenylethyl)carbamoyl)-1,2,3,4-tetrahydroisoquinolin-7-yl)terephthalamide] was run?
Answer: Its IC50 is 130 nM.

Question: Which IC50 does the source give for `CC[C@H](NC)C(=O)N[C@H](C(=O)N1Cc2cc(NC(=O)c3ccc(C(=O)N[C@H]4C[C@@H](C(=O)N[C@@H]5CCCc6ccccc65)N(C(=O)[C@@H](NC(=O)[C@H](C)NC)C(C)(C)C)C4)cc3)ccc2C[C@H]1C(=O)N[C@@H]1CCCc2ccccc21)C(C)(C)C` [Example 15, N^1-((S)-2-((S)-3,3-Dimethyl-2-((S)-2-(methylamino)butanamido)butanoyl)-3-(((R)-1,2,3,4-tetrahydronaphthalen-1-yl)carbamoyl)-1,2,3,4-tetrahydroisoquinolin-7-yl)-N^4-((3S,5S)-1-((S)-3,3-dimethyl-2-((S)-2-(methylamino)propanamido)butanoyl)-5-(((R)-1,2,3,4-tetrahydronaphthalen-1-yl)carbamoyl)pyrrolidin-3-yl)terephthalamide] here?
Answer: Its IC50 is 110 nM.
